Results published in patent US11612634B2 (priority 2020, dated 2023).
Where two headings read alike, the source gives them in different places.

Tests used:
Type in all cases: in vivo
[1] = test system: CCI-induced neuropathic pain rat model; assay: Analgesic effect on mechanical hyperalgesia (PWT) in CCI-induced neuropathic pain rat model
Description: The chronic constriction nerve injury (CCI)-induced neuropathic pain rat model was built according to a published method (Bennett G J, et al. Pain, 1988). The experimental rats were anesthetized by intraperitoneal injection of 10 wt % chloral hydrate (300 mg/kg), and then placed on a super-clean bench, and the operation area was disinfected with iodophor.
The ligation tightness should be adjusted to cause slight twitching of a leg on an operated side of the rat without affecting the blood circulation of the epineurium. The wound was sutured layeredly and wiped with iodophor according to the postoperative situation. The rats were transferred back into a cage for rest upon fully recovering. The PWT was measured 5 days after modeling, where those with a significant lower PWT were considered as successful neuropathic pain rat models, and the undesirable rats were excluded.
(S1) A total of 15 healthy adult SD rats, weighing 180-220 g, were selected, numbered on tails and placed in the same cage.
(S2) The rats were raised in a measuring room for 2 h for adaptation.
The measurement was repeated 3-5 times for each rat at an interval of 5-10 min, and the results were averaged. Then the rats were allowed to rest for several hours and then adopted to build a CCI-induced neuropathic pain model.
(S4) The PWT was measured on the morning of the 3rd day and the 6th day after the modeling, and those unsuccessful models were removed. And on the 6th after the modeling, the successful rat models were randomly divided into 3 groups, where the group A was injected with normal saline; the group B was injected with 5 mg/kg of morphine; and the group C was intradermally injected with 8 μg/kg of the short peptide P10581 into the left hind paw. 1 h later, the PWT of each group was recorded when the left hind paw generated mechanical withdrawal. Each of the rats was measured 3-5 times at an interval of 5-10 min, and the PWTs were averaged as the actual PWT (unit: g). The drug injection was fixedly performed at 9:00 a.m. and 5:30 p.m. from the 6th day to the 14th day after modeling, and the PWT of each group was measured before and after administration every other day. On the 15th day after modeling, the group B was injected with 8 μg/kg of the short peptide P10581 and the group C was injected with 5 mg/kg of the morphine, and the PWT of the group B and group C was recorded when the mechanical withdrawal occurred to the left hind paw.
(1) 30 healthy adult SD rats, weighing 180-220 g, were selected to build a CCI-induced neuropathic pain model. On the 8th day after the modeling, successfully-established models were randomly divided into 6 groups, where the group A was injected with 0.45 μg/kg of the short peptide P10581; the group B was injected with 0.9 μg/kg of the short peptide P10581; the group C was injected with 1.8 μg/kg of the short peptide P10581; the group D was injected with 3.6 μg/kg of the short peptide P10581; the group E was injected with 7.2 μg/kg of the short peptide P10581; and the group F was injected with 8.5 μg/kg of the short peptide P10581. The PWT of each group was measured 1.5 h later.
(2) Each group was injected with 7.2 μg/kg of the short peptide P10581 at 5:30 p.m. on the 8th day after modeling, and then continuously injected from the 9th day to the 16th day 16 (injected with 7.2 μg/kg of the short peptide P10581 at 9:00 a.m. and 5:30 p.m. a day). The PWT of rats before and after administration in the morning was measured every other day.
(3) On the 17th day after modeling, the six groups were injected with different doses of the short peptide P10581, respectively, according to step (1). 1.5 h later, the PWT of each group was measured to evaluate the effect of dose.
(1) 15 healthy adult SD rats, weighing 180-220 g, were selected to build a CCI-induced neuropathic pain model.

[2] = test system: morphine analgesic tolerance, neuropathic pain rat model
Description: (1) 18 healthy adult SD rats, weighing 180-220 g, were selected to build a CCI-induced neuropathic pain model. On the 7th day after modeling, those successfully-established models were randomly divided into 3 groups, where the group A was injected with normal saline; the group B was injected with morphine (15 μg, 10 μL); and the group C was injected with 0.2 μg/kg of the short peptide P10581, and then injected with morphine (15 μg, 10 μL) 30 min later. 1 h later, the PWT of each group was recorded.
(2) Each group was injected with the drug respectively at 9:00 a.m. and 5:30 p.m. from 7th day to 11th day after modeling, and the PWT of each group was measured before and after the administration in the morning every day.

[3] = test system: morphine analgesic tolerance, neuropathic pain rat model; details: for analgesic effect of morphine restored: after 5-day continuous administration
Description: (1) 15 healthy adult SD rats, weighing 180-220 g, were selected to build a CCI-induced neuropathic pain model. 6 days after the modeling, successful models were randomly divided into 3 groups, where the group A was injected with 0.1 μg/kg of the short peptide P10581; the group B was injected with 5 mg/kg of the morphine; and the group C was injected with 0.1 μg/kg of the short peptide P10581, and then with 5 mg/kg of the morphine 30 min later. 1 h later, the PWT of each group was recorded.
(2) Each group was injected with the drug in the afternoon on the 6th day after the modeling, and from the 7th day to the 12th day, the drug administration was performed at 9:00 a.m. and 5:30 p.m. (5 mg/kg of morphine twice a day; and 0.1 μg/kg of the short peptide P10581 was administered 30 min before the morphine injection). The PWT of rats in each group before and after administration in the morning was measured every other day.
(1) 30 healthy adult SD rats, weighing 180-220 g, were selected to build a CCI-induced neuropathic pain model. Those successfully-established models were randomly divided into 6 groups on the 6th day, where the groups A was injected with normal saline; and the groups B-F were injected with 0.01 μg/kg, 0.025 μg/kg, 0.1 μg/kg, 0.2 μg/kg and 0.4 μg/kg of the short peptide P10581, respectively. 30 min later, the groups A-F were further injected with 5 mg/kg of the morphine, and 1 h later, the PWT of each group was recorded.
(2) Each group was injected with the drug in the afternoon on the 6th day after modeling, and from the 7th day to the 10th day, the drug administration was performed at 9:00 a.m. and 5:30 p.m. (injected twice a day consecutively for 5 days), and the PWT of each group before and after the administration in the morning was measured every other day.
In the FIG. 10B, ΔPWT (drug) and ΔPWT (Baseline) were calculated as follows: ΔPWT(drug)=PWT(post-drug)−PWT(pre-drug); and ΔPWT(Baseline)=PWT(before CCI)−PWT(after CCI).
The intensity of the relieving effect on the tolerance was represented by ΔPWT (drug)/ΔPWT (Baseline), where the ΔPWT (drug) indicated a difference between pain thresholds before and after Mor+P10581 injection in the morning.

[4] = 8 μg/kg i.d., twice a day, repeated

Molecule | analgesic effect on neuropathic pain threshold, low dose ([1]; 0.1 μg/kg i.d., twice a day) | IC50 before vs after repeated administration ([1]; 7.2 μg/kg i.d. repeated (FIG. 8D)) | change of PWT after repeated high-dose administration ([1]; 7.2 μg/kg i.d., twice a day, 9 days, test doses 0.45-8.5 μg/kg) | analgesic effect in morphine-tolerant rats ([1]; 8 μg/kg i.d. on day 10 after repeated morphine 5 mg/kg) | analgesic effect on neuropathic pain [1, 4] | analgesic tolerance after repeated injection [1, 4] | administration dose at which analgesic effect reached the peak ([1]; neuropathic pain, i.d.) | effect on morphine analgesic tolerance ([2]; 0.2 μg/kg peptide intrathecal 30 min before morphine 15 μg) | effect on morphine analgesic tolerance ([3]; 0.1 μg/kg peptide 30 min before 5 mg/kg morphine, twice a day) | restoration of analgesic effect of morphine ([3]; 0.1 μg/kg peptide + 5 mg/kg morphine, 5th day) | analgesic effect of morphine restored, ΔPWT (drug)/ΔPWT (Baseline) ([3]; 0.2 μg/kg peptide, after 3-day consecutive injection of morphine) | analgesic effect of morphine restored ([3]; 0.2 μg/kg peptide) | effect on morphine analgesic tolerance ([3]; 0.4 μg/kg peptide + 5 mg/kg morphine (FIGS. 10A, 10B)) | effect on morphine analgesic tolerance ([3]; 0.4 μg/kg peptide, after 3-day consecutive injection of morphine) | analgesic effect of morphine restored ([3]; 0.4 μg/kg peptide) | dose at which morphine analgesic tolerance is effectively relieved ([3]; neuropathic pain, rats) | analgesic effect / tolerance after repeated injection ([1]; rat, in vivo) | analgesic effect of morphine after repeated P10581 ([1]; rat, in vivo) | analgesic effect of morphine on neuropathic pain ([2]; rat, in vivo) | analgesic effect of morphine alone ([3]; rat, in vivo)
WKCNPNDDKCCRPKLKC [P10581] | no effect on the threshold of neuropathic pain in rats | did not bring significant difference to the IC50 | no obvious change occurred to the PWT | neuropathic pain threshold of rats can be reversed | neuropathic pain was alleviated | no analgesic tolerance occurred | 7.2 µg/kg | completely eliminated | partially relieved the morphine analgesic tolerance | restored by half | 90.1% | higher than 60% | completely reversed | completely reverse the morphine analgesic tolerance | higher than 85% | ≥ 0.01 µg/kg | – | – | – | –
CN1CC[C@]23c4c5ccc(O)c4O[C@H]2[C@@H](O)C=C[C@H]3[C@H]1C5 [morphine, reference compound] | – | – | – | – | – | – | – | – | – | – | – | – | – | – | – | – | eventually lost the analgesic effect | the same analgesic effect was still kept | completely disappeared | almost completely disappeared
